Target: T1, BTK protein (Homo sapiens, UniProt Q06187)
T1 construct: endogenous in cells; host or cells: TMD-8 cells
Assay: Measurement of BTK protein degradation ability in TMD-8 cells (Western blotting)
Assay type: cell-based
Conditions: harvested after 24 hours; for BTK degradation (%) 1 nM: compound 1 nM; for BTK degradation (%) 10 nM: compound 10 nM; for BTK degradation (%) 100 nM: compound 100 nM
Procedure: TMD-8, RAMOS, or 293T BTK MUT (C481S) cells were treated with the synthesized compounds, and then the amount of BTK protein present in the cells was measured using Western blotting detection. The protocol for the experiment conducted using TMD-8 cells was as follows:
[Culture] TMD-8 cells were resuspended in RPMI1640 MEDIUM (Hyclone, SH30027.01), 10% FBS (Hyclone, SV30207.02), and 1% Penicillin-streptomycin (Welgene, LS 202-02) media, and 1 mL of this suspension was seeded in a 12-well plate at a cell concentration of 1×10^6/mL.
[Compound treatment] The 12-well plate was treated as follows: The 10 mM stock was serially diluted 1/10 with DMSO (3 μL+27 μL DMSO), and cells were treated with compounds at final concentrations of 0.1, 1, 10 μM or 0.0001, 0.001, 0.01, 0.1 μM, and harvested after 24 hours. In the negative control group, DMSO diluted 1/10 was added to the media. (3 μL DMSO+27 μL media)
[Harvest] Each well was pipetted with a 1 mL pipette, collected in a 1.5 mL microtube, and centrifuged (500 g, 5 min, 4° C.). After removing the supernatant, it was washed with PBS and centrifuged again (500 g, 5 min, 4° C.). The supernatant was removed and the pellet was collected.
[Cell lysis and Sample preparation] lysis buffer was prepared as follows: RIPA buffer (Biosesang, RC2038-050-00), 0.5 mM PMSF (SIGMA, P7626) and 1× Protease/Phosphatase Inhibitor (Cell signaling, 5872S) were added at 60-70 μL per well and left on ice for 30 minutes. (Vortexing at 0 and 30 minutes, respectively), followed by sonication (10 seconds pulse, 30 seconds rest, 5 cycles, 70% amplification) and centrifuge (15000 g, 15 min, 4° C.). Only the supernatant was collected and transferred to a new microtube. The samples were diluted by ½ with RIPA buffer in a 96-well plate. 200 μL of the mixture A:B=50:1 of the BCA Protein Assay Kit (iNtRON, 21071) was added each, stayed at 37° C. for 30 minutes, and cooled for 10 minutes. Afterwards, absorbance was measured at 562 nm using BioTek's SYNERGY H1 microplate reader. After making a sample by quantifying the protein using the measured value, it was boiled at 70° C. for 10 minutes. The sample buffer used at this time was a mixture of NuPAGE or Bolt 4× sample buffer (Invitrogen) and each 10× sample reducing agent according to the gel to be used. RIPA buffer was used for protein dilution.
[Western blotting detection method] The same amount of sample was loaded on NuPAGE or Bolt Bis-tris 4-12% gradient gel and run (200 V, 35 minutes). It was transferred to a […] NC membrane using Trans-blot Turbo (BIO-RAD) (1.3 A constant, 25 V limit, 15 minutes). For blocking, skim milk or Intercept Blocking Buffer (LI-COR, 927-60001): 0.1% TBST=1:1 was used at room temperature for 1 hour. Anti BTK Rabbit (1:1,000 in 5% skim milk/0.2% TBST, size: 77 kDa, Cell signaling Technology) was reacted at 4° C. for 16 hours or at room temperature for 2 hours. Anti GAPDH Rabbit (1:10,000 in 5% BSA/0.2% TBST, size: 36 kDa, GENETEX) and Anti β-actin mouse (1:10,000 in 5% BSA/0.2% TBST, RT, size: 43 kDa, GENETEX) were reacted at room temperature for 1 hour or 3 hours. The samples were washed 3 times with 0.5% TBST for 5 minutes each. Secondary antibodies, Anti-Rabbit IgG (1:5,000 in 5% Skim milk/TBST, CST), IRDye® 800CW Goat anti-Rabbit IgG Secondary Antibody (1:10,000 in 5% skim/TBST, RT 45 min), IRDye® 680RD Goat anti-Mouse IgG Secondary Antibody (1:10,000 in 5% skim/TBST, RT 45 min) were added depending on each sample and reacted for 45 minutes on a rocker at room temperature. The samples were washed 5 times with 0.5% TBST for 5 minutes each and detected with LI-COR's Odyssey. At this time, BTK was detected using SuperSignal West Pico PLUS Chemiluminescent Substrate or SuperSignal West femto Maximum Sensitivity Substrate, and house-keeping genes were detected as is.

T1 sequence (Q06187 whole entry): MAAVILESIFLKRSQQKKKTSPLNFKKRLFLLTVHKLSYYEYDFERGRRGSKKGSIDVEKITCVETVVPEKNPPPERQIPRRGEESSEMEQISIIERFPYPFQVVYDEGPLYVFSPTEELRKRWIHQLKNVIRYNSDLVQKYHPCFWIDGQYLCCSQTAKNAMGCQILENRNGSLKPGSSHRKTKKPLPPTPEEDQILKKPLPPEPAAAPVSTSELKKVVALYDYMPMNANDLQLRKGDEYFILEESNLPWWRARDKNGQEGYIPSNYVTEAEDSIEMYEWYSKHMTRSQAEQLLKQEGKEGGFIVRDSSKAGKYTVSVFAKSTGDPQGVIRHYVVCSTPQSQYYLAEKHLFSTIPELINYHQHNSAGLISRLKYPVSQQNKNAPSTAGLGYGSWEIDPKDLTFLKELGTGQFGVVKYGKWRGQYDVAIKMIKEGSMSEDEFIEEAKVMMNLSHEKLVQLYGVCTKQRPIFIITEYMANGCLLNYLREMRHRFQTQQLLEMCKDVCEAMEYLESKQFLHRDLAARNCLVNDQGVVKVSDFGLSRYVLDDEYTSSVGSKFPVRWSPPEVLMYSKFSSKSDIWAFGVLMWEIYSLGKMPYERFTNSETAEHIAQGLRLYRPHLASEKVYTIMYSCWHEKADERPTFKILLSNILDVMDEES

Cc1cc(-c2ccnc(Nc3ccc(N4CCN(CC5CCN(c6cccc(N7CCC(=O)NC7=O)c6)CC5)CC4)nc3)n2)ccc1CNC(=O)c1cn(C(C)(C)C)nn1 [Example 76] was tested, and the “BTK degradation (%) 1 nM” value was 55.0%, the “BTK degradation (%) 10 nM” value was 96.5% and the “BTK degradation (%) 100 nM” value was 100.0%.
Cc1cc(-c2ccnc(Nc3ccc(N4CCN(CC5CN(c6ccc7c(n6)CN(C6CCC(=O)NC6=O)C7=O)C5)CC4)cc3)n2)ccc1CNC(=O)N1CC(OC(C)C)C1 (centres unmarked) [Example 107, N-(4-(2-((4-(4-((1-(6-(2,6-dioxopiperidin-3-yl)-5-oxo-6,7-dihydro-5H-pyrrolo[3,4-b]pyridin-2-yl)azetidin-3-yl)methyl)piperazin-1-yl)phenyl)amino)pyrimidin-4-yl)-2-methylbenzyl)-3-isopropoxyazetidine-1-carboxamide] was tested, and the “BTK degradation (%) 1 nM” value was 63.5%, the “BTK degradation (%) 10 nM” value was 95% and the “BTK degradation (%) 100 nM” value was 98%.
Cc1cc(-c2ccnc(Nc3ccc(C4CCN(CC5CN(c6ccc7c(c6)C(=O)N(C6CCC(=O)NC6=O)C7=O)C5)CC4)cc3)n2)ccc1CNC(=O)N1CC(OC(C)C)C1 (centres unmarked) [Example 16, N-(4-(2-((4-(1-((1-(2-(2,6-dioxopiperidin-3-yl)-1,3-dioxoisoindolin-5-yl)azetidin-3-yl)methyl)piperidin-4-yl)phenyl)amino)pyrimidin-4-yl)-2-methylbenzyl)-3-isopropoxyazetidine-1-carboxamide] was tested, and the “BTK degradation (%) 1 nM” value was 59%, the “BTK degradation (%) 10 nM” value was 93% and the “BTK degradation (%) 100 nM” value was 98.5%.
With Cc1cc(-c2ccnc(Nc3ccc(N4CCC(C(=O)N5CCC(c6ccc(OC7CCC(=O)NC7=O)cc6)CC5)CC4)cc3)n2)ccc1CNC(=O)N1CC(OC(C)C)C1 (centres unmarked) [Example 118, N-(4-(2-((4-(4-(4-(4-((2,6-dioxopiperidin-3-yl)oxy)phenyl)piperidine-1-carbonyl)piperidin-1-yl)phenyl)amino)pyrimidin-4-yl)-2-methylbenzyl)-3-isopropoxyazetidine-1-carboxamide] the “BTK degradation (%) 1 nM” value was 15.0%, the “BTK degradation (%) 10 nM” value was 68.0% and the “BTK degradation (%) 100 nM” value was 97.5%.
In the case of Cc1cc(-c2ccnc(Nc3ccc(C4CCN(CC5CN(c6ccc7c(c6)C(=O)N(C6CCC(=O)NC6=O)C7=O)C5)CC4)cc3)n2)ccc1CNC(=O)c1cnn(C(C)C)c1 (centres unmarked) [Example 44, N-(4-(2-((4-(1-((1-(2-(2,6-dioxopiperidin-3-yl)-1,3-dioxoisoindolin-5-yl)azetidin-3-yl)methyl)piperidin-4-yl)phenyl)amino)pyrimidin-4-yl)-2-methylbenzyl)-1-isopropyl-1H-pyrazole-4-carboxamide], the “BTK degradation (%) 1 nM” value is reported as 66.0%, the “BTK degradation (%) 10 nM” value is reported as 95.0% and the “BTK degradation (%) 100 nM” value is reported as 99.0%.
Cc1cc(-c2ccnc(Nc3ccc(N4CCN(CC5CCN(C(=O)c6cccc(NC7CCC(=O)NC7=O)c6)CC5)CC4)cc3)n2)ccc1CNC(=O)c1cnn(C(C)(C)C)c1 (centres unmarked) [Example 95, 1-(tert-butyl)-N-(4-(2-((4-(4-((1-(3-((2,6-dioxopiperidin-3-yl)amino)benzoyl)piperidin-4-yl)methyl)piperazin-1-yl)phenyl)amino)pyrimidin-4-yl)-2-methylbenzyl)-1H-pyrazole-4-carboxamide] was tested, and the “BTK degradation (%) 1 nM” value was 67.5%, the “BTK degradation (%) 10 nM” value was 94.5% and the “BTK degradation (%) 100 nM” value was 98.0%.
With Cc1cc(-c2ccnc(Nc3ccc(N4CCN(CC5CCN(c6ccc(NC7CCC(=O)NC7=O)cn6)CC5)CC4)cc3)n2)ccc1CNC(=O)c1cnn(C(C)C)c1 (centres unmarked) [Example 58, N-(4-(2-((4-(4-((1-(5-((2,6-dioxopiperidin-3-yl)amino)pyridin-2-yl)piperidin-4-yl)methyl)piperazin-1-yl)phenyl)amino)pyrimidin-4-yl)-2-methylbenzyl)-1-isopropyl-1H-pyrazole-4-carboxamide] the “BTK degradation (%) 1 nM” value was 62.0%, the “BTK degradation (%) 10 nM” value was 97.5% and the “BTK degradation (%) 100 nM” value was 99.0%.
In the case of Cc1cc(-c2ccnc(Nc3ccc(CN4CCN(CC5CCN(c6ccc(N7CCC(=O)NC7=O)cc6)CC5)CC4)cc3)n2)ccc1CNC(=O)N1CC(OC(C)C)C1 [Example 68, N-(4-(2-((4-((4-((1-(4-(2,4-dioxotetrahydropyrimidin-1 (2H)-yl)phenyl)piperidin-4-yl)methyl)piperazin-1-yl)methyl)phenyl)amino)pyrimidin-4-yl)-2-methylbenzyl)-3-isopropoxyazetidine-1-carboxamide], the “BTK degradation (%) 1 nM” value is reported as 22.5%, the “BTK degradation (%) 10 nM” value is reported as 88.0% and the “BTK degradation (%) 100 nM” value is reported as 99.0%.
Cc1cc(-c2ccnc(Nc3ccc(N4CCC(CN5CCC(c6ccc(NC7CCC(=O)NC7=O)cc6)CC5)CC4)cc3)n2)ccc1CNC(=O)N1CC(OC(C)C)C1 (centres unmarked) [Example 123, N-(4-(2-((4-(4-((4-(4-((2,6-dioxopiperidin-3-yl)amino)phenyl)piperidin-1-yl)methyl)piperidin-1-yl)phenyl)amino)pyrimidin-4-yl)-2-methylbenzyl)-3-isopropoxyazetidine-1-carboxamide] was tested, and the “BTK degradation (%) 1 nM” value was 17.5%, the “BTK degradation (%) 10 nM” value was 92.5% and the “BTK degradation (%) 100 nM” value was 100.0%.
With Cc1cc(-c2ccnc(Nc3ccc(N4CCN(CC5(C)CN(c6ccc7c(c6)C(=O)N(C6CCC(=O)NC6=O)C7=O)C5)CC4)cc3)n2)ccc1CNC(=O)N1CC(OC(C)C)C1 (centres unmarked) [Example 14, N-(4-(2-((4-(4-((1-(2-(2,6-dioxopiperidin-3-yl)-1,3-dioxoisoindolin-5-yl)-3-methylazetidin-3-yl)methyl)piperazin-1-yl)phenyl)amino)pyrimidin-4-yl)-2-methylbenzyl)-3-isopropoxyazetidine-1-carboxamide] the “BTK degradation (%) 1 nM” value was 20%, the “BTK degradation (%) 10 nM” value was 85.5% and the “BTK degradation (%) 100 nM” value was 98%.
For Cc1cc(-c2ccnc(Nc3ccc(N4CCN(CC5CCN(c6ccc(N7CCC(=O)NC7=O)cc6)CC5)CC4)nc3)n2)ccc1CNC(=O)c1cn(C(C)(C)C)nn1 [Example 77], the “BTK degradation (%) 1 nM” value was 57.5%, the “BTK degradation (%) 10 nM” value was 96.0% and the “BTK degradation (%) 100 nM” value was 99.5%.
For Cc1cc(-c2ccnc(Nc3ccc4c(c3)CN(CC3CCN(c5ccc6c(c5)C(=O)N(C5CCC(=O)NC5=O)C6=O)CC3)CC4)n2)ccc1CNC(=O)c1cn(C(C)(C)C)nn1 (centres unmarked) [Example 3, 1-(tert-butyl)-N-(4-(2-((2-((1-(2-(2,6-dioxopiperidin-3-yl)-1,3-dioxoisoindolin-5-yl)piperidin-4-yl)methyl)-1,2,3,4-tetrahydroisoquinolin-7-yl)amino)pyrimidin-4-yl)-2-methylbenzyl)-1H-1,2,3-triazole-4-carboxamide], the “BTK degradation (%) 10 nM” value was 84% and the “BTK degradation (%) 100 nM” value was 93%.
In the case of Cc1cc(-c2ccnc(Nc3ccc(N4CCC(CN5CCC(c6cccc(NC7CCC(=O)NC7=O)c6)CC5)CC4)cc3)n2)ccc1CNC(=O)N1CC(OC(C)C)C1 (centres unmarked) [Example 122, N-(4-(2-((4-(4-((4-(3-((2,6-dioxopiperidin-3-yl)amino)phenyl)piperidin-1-yl)methyl)piperidin-1-yl)phenyl)amino)pyrimidin-4-yl)-2-methylbenzyl)-3-isopropoxyazetidine-1-carboxamide], the “BTK degradation (%) 1 nM” value is reported as −9.0%, the “BTK degradation (%) 10 nM” value is reported as 63.0% and the “BTK degradation (%) 100 nM” value is reported as 98.5%.
